Test results reported in ChEMBL document CHEMBL4393739, “Design, synthesis and anti-inflammatory evaluation of novel pyrrolo[2,3-d]pyrimidin derivatives as potent JAK inhibitors” (Bioorg Med Chem, 2019).
The source made the active and inactive calls. The rule behind the calls is not given here.

Tests used:
[1] = Solubility of the compound; type: physicochemical
[2] = target: Tyrosine-protein kinase JAK1 (Homo sapiens) (UniProt P23458); conditions: at 10 µM
RAW264.7 [3] = assay: Antiinflammatory activity in mouse RAW264.7 cells assessed as reduction in LPS-induced upregulation of IL-1 beta expression by Western blot analysis; type: functional, cell-based
RAW264.7 [4] = assay: Antiinflammatory activity in mouse RAW264.7 cells assessed as reduction in LPS-induced JAK1 expression by Western blot analysis; type: functional, cell-based
RAW264.7 [5] = assay: Antiinflammatory activity in mouse RAW264.7 cells assessed as reduction in LPS-induced JAK2 expression by Western blot analysis; type: functional, cell-based
RAW264.7 [6] = assay: Antiinflammatory activity in LPS-induced mouse RAW264.7 cells assessed as protection against cell damage by measuring reduction in cell shrinking at 10 ug/ml cotreated with LPS measured after 18 hrs by light microscopy; type: functional, cell-based
RAW264.7 [7] = assay: Antiinflammatory activity in LPS-induced mouse RAW264.7 cells assessed as protection against cell damage by measuring reduction in apoptotic body formation at 10 ug/ml cotreated with LPS measured after 18 hrs by light microscopy; type: functional, cell-based
RAW264.7 [8] = assay: Antiinflammatory activity in LPS-induced mouse RAW264.7 cells assessed as protection against cell damage by measuring reduction in cell rounding at 10 ug/ml co-treated with LPS measured after 18 hrs by light microscopy; type: functional, cell-based
RAW264.7 [9] = assay: Cytotoxicity against mouse RAW264.7 cells assessed as cell growth inhibition measured after 24 hrs by MTT assay; type: cell-based; conditions: for IC50: Mus musculus, RAW264.7, 24 h; for Activity: mouse, raw264.7, 24 h
RAW264.7 [10] = assay: Antiinflammatory activity in LPS-induced mouse RAW264.7 cells assessed as reduction in NO generation by measuring NO level at 10 ug/ml measured after 18 hrs by Griess method; type: functional, cell-based
RAW264.7 [11] = assay: Antiinflammatory activity in LPS-induced mouse RAW264.7 cells assessed as reduction in NO generation by measuring NO level at 5 ug/ml measured after 18 hrs by Griess method; type: functional, cell-based
RAW264.7 [12] = assay: Antiinflammatory activity in LPS-induced mouse RAW264.7 cells assessed as reduction in NO generation by measuring NO level at 2.5 ug/ml measured after 18 hrs by Griess method; type: functional, cell-based

Tyrosine-protein kinase JAK1 (Homo sapiens), sequence (P23458 whole entry): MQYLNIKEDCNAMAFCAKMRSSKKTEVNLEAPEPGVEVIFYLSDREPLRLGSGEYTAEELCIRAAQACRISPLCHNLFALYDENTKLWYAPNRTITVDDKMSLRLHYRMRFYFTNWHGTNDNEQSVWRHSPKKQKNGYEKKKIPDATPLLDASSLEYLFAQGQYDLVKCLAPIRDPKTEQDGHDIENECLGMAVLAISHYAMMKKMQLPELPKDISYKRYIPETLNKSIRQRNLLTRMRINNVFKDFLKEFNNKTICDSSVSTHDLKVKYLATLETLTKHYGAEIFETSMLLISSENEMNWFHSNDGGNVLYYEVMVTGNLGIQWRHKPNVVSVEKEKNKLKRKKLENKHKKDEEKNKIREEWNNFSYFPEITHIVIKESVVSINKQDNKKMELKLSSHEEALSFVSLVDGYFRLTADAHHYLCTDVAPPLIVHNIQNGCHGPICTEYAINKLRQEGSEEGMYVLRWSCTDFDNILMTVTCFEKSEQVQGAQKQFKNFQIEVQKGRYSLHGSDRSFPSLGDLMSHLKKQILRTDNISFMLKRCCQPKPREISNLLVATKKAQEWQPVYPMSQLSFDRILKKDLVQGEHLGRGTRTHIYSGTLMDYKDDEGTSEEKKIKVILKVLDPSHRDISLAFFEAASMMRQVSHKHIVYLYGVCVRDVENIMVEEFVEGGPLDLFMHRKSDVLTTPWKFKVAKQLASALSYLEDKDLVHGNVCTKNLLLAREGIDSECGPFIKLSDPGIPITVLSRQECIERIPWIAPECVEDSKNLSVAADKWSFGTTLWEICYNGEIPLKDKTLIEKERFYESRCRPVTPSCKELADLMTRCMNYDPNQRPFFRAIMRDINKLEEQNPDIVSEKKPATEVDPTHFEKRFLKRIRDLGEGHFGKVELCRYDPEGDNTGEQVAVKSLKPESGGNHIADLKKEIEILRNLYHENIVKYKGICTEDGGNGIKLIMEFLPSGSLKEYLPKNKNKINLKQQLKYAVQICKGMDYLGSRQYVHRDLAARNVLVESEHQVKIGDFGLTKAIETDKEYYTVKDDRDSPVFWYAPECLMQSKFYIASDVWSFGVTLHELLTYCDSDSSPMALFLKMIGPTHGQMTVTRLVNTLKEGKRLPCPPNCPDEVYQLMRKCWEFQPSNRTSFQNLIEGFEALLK

Row | Compound | solubility [1] | inhibition [2] | also measured
1 | CCS(=O)(=O)N1CCC(n2cc(-c3ncnc4[nH]ccc34)cn2)CC1 | Insoluble | 95.2% | 
2 | O=C(O)C1CCN(CC(=O)N2CCC(n3cc(-c4ncnc5[nH]ccc45)cn3)CC2)CC1 |  | 92.5% | Activity (RAW264.7 [3]): Active; Activity (RAW264.7 [4]): Dose-dependent effect; Activity (RAW264.7 [5]): Dose-dependent effect; Activity (RAW264.7 [6]): Active; Activity (RAW264.7 [7]): Active; Activity (RAW264.7 [8]): Active; IC50 (RAW264.7 [9]): 80.9 µM; Activity (RAW264.7 [9]): Dose-dependent effect
3 | O=C(CN1CCN(CCO)CC1)N1CCC(n2cc(-c3ncnc4[nH]ccc34)cn2)CC1 |  | 83% | 
4 | CN(C)CC(=O)N1CCC(n2cc(-c3ncnc4[nH]ccc34)cn2)CC1 |  | 46.9% | 
5 | O=C(CN1CCCCC1)N1CCC(n2cc(-c3ncnc4[nH]ccc34)cn2)CC1 |  | 65.6% | 
6 | CN1CCN(CC(=O)N2CCC(n3cc(-c4ncnc5[nH]ccc45)cn3)CC2)CC1 |  | 72.8% | 
7 | CCN(CC)CC(=O)N1CCC(n2cc(-c3ncnc4[nH]ccc34)cn2)CC1 |  | 38.6% | 
8 | O=S(=O)(C1CC1)N1CCC(n2cc(-c3ncnc4[nH]ccc34)cn2)CC1 | Insoluble | 59.4% | 
9 | CCS(=O)(=O)N1CC(CC#N)(n2cc(-c3ncnc4[nH]ccc34)cn2)C1 |  |  | Activity (RAW264.7 [10]): Active; Activity (RAW264.7 [11]): Active; Activity (RAW264.7 [12]): Active
10 | O=C(CN1CCOCC1)N1CCC(n2cc(-c3ncnc4[nH]ccc34)cn2)CC1 |  | 69.6% | 
11 | O=C(CN1CCCC1)N1CCC(n2cc(-c3ncnc4[nH]ccc34)cn2)CC1 |  | 55.1% | 
12 | CC1CCN(CC(=O)N2CCC(n3cc(-c4ncnc5[nH]ccc45)cn3)CC2)CC1 |  | 90.3% | Activity (RAW264.7 [3]): Active; Activity (RAW264.7 [4]): Dose-dependent effect; Activity (RAW264.7 [5]): Dose-dependent effect; Activity (RAW264.7 [6]): Active; Activity (RAW264.7 [7]): Active; Activity (RAW264.7 [8]): Active; Activity (RAW264.7 [10]): Active; Activity (RAW264.7 [11]): Active; IC50 (RAW264.7 [9]): 88.2 µM; Activity (RAW264.7 [9]): Dose-dependent effect; Activity (RAW264.7 [12]): Active

Continued, in another order:

Row | solubility [1] | inhibition [2] | Compound | also measured
13 | Insoluble | 63.7% | O=S(=O)(c1ccc(Cl)cc1)N1CCC(n2cc(-c3ncnc4[nH]ccc34)cn2)CC1 | 
14 | Insoluble | 72.5% | N#Cc1ccc(S(=O)(=O)N2CCC(n3cc(-c4ncnc5[nH]ccc45)cn3)CC2)cc1 | 
15 | Insoluble | 92.4% | Cc1ccc(S(=O)(=O)N2CCC(n3cc(-c4ncnc5[nH]ccc45)cn3)CC2)cc1 | 
16 | Insoluble | 22.1% | CS(=O)(=O)N1CCC(n2cc(-c3ncnc4[nH]ccc34)cn2)CC1 | 
17 | Insoluble | 93.6% | O=S(=O)(c1cc(F)cc(F)c1)N1CCC(n2cc(-c3ncnc4[nH]ccc34)cn2)CC1 | 
18 | Insoluble | 60.3% | O=S(=O)(c1ccc(Br)cc1)N1CCC(n2cc(-c3ncnc4[nH]ccc34)cn2)CC1 | 
19 | Insoluble | 93.4% | O=S(=O)(c1ccc(F)cc1)N1CCC(n2cc(-c3ncnc4[nH]ccc34)cn2)CC1 | 
20 | Insoluble | 53.2% | COc1ccc(S(=O)(=O)N2CCC(n3cc(-c4ncnc5[nH]ccc45)cn3)CC2)cc1 | 
21 | Insoluble | 96.6% | O=[N+]([O-])c1ccccc1S(=O)(=O)N1CCC(n2cc(-c3ncnc4[nH]ccc34)cn2)CC1 | Activity (RAW264.7 [10]): Active; Activity (RAW264.7 [11]): Active; Activity (RAW264.7 [12]): Active
22 | Insoluble | 94.7% | Cc1ccccc1S(=O)(=O)N1CCC(n2cc(-c3ncnc4[nH]ccc34)cn2)CC1 | 
23 | Insoluble | 99.6% | O=[N+]([O-])c1ccc(S(=O)(=O)N2CCC(n3cc(-c4ncnc5[nH]ccc45)cn3)CC2)cc1 | 
24 | Insoluble | 72.8% | O=S(=O)(c1cccc(Br)c1)N1CCC(n2cc(-c3ncnc4[nH]ccc34)cn2)CC1 | 
25 | Insoluble | 2.7% | O=S(=O)(c1ccccc1)N1CCC(n2cc(-c3ncnc4[nH]ccc34)cn2)CC1 | 
26 | Insoluble | 92.4% | O=[N+]([O-])c1cccc(S(=O)(=O)N2CCC(n3cc(-c4ncnc5[nH]ccc45)cn3)CC2)c1 | 
